System: Raf-1^gof intestinal tumors
Settings: for Log2 (fold) (luciferase activity, log2 of the fold difference relative to DMSO controls) / Fold (luciferase activity, fold difference relative to DMSO controls): screen of 480 ICCB compounds in vials, compounds fed to flies with one-day old Raf-1^gof tumors, esg-Gal4 luciferase; for Log2 (fold) (luciferase activity, log2 of the fold difference relative to DMSO controls) / Fold (luciferase activity, fold difference relative to DMSO controls) / Log2 (fold) of luciferase activity relative to DMSO controls / Fold (luciferase activity relative to DMSO controls): assessed three days later; for Fold (luciferase activity, fold difference relative to DMSO controls) / Fold (luciferase activity relative to DMSO controls): averaged from multiple wells; for Log2 (fold) of luciferase activity relative to DMSO controls / Fold (luciferase activity relative to DMSO controls): ICCB compounds fed in vials to flies with one-day old Raf-1^gof tumors
Throughout, for Fold (luciferase activity relative to DMSO controls): test concentration or dose not given here.
Throughout, for Fold (luciferase activity, fold difference relative to DMSO controls): test concentration or dose not given here.
Throughout, for Log2 (fold) (luciferase activity, log2 of the fold difference relative to DMSO controls): test concentration or dose not given here.
Throughout, for Log2 (fold) of luciferase activity relative to DMSO controls: test concentration or dose not given here.

Molecule	Log2 (fold) (luciferase activity, log2 of the fold difference relative to DMSO controls)	Fold (luciferase activity, fold difference relative to DMSO controls)	Log2 (fold) of luciferase activity relative to DMSO controls	Fold (luciferase activity relative to DMSO controls) [fold]	Fold (Table 3 summary of hits, Screen ICCB, luciferase relative to DMSO, fed three consecutive days in vials) [fold]
CCCCC[C@H](O)/C=C/[C@H]1[C@H](O)CC(=O)[C@@H]1CCCCCCC(=O)O [PROSTAGLANDIN E1]	−0.561	0.678	–	–	–
CCCC[C@H]1C(=O)O[C@H](C)[C@H](NC(=O)c2cccc(NC=O)c2OC)C(=O)O[C@@H](C)[C@@H]1OC(=O)CC(C)C [2-methoxyantimycin A3]	−0.873	0.546	–	–	–
COc1ccc(C[C@H]2NC[C@H](O)[C@H]2OC(C)=O)cc1 [anisomycin]	–	–	−0.148	0.902	–
CCCCC/C=C\C/C=C\C/C=C\C/C=C\CCCC(=O)OC(CO)CO [2-ARACHIDONOYLGLYCEROL]	–	–	0.119	1.086	–
CCCCC/C=C\C=C\[C@H](CCCCCCCC(=O)O)OO [9(S)-HPODE]	−0.294	0.816	–	–	–
LY-171883	–	–	0.168	1.124	–
N#CC(C#N)=Cc1ccc([N+](=O)[O-])c(O)c1 [tyrphostin AG-126]	–	–	−0.085	0.943	–
Fc1ccc(C(c2ccc(F)cc2)N2CCN(C/C=C/c3ccccc3)CC2)cc1 [FLUNARIZINE]	−0.836	0.560	–	–	–
CCCCCCCCCCCCCCCCOC[C@H](COP(=O)([O-])OCC[N+](C)(C)C)OC(C)=O [PAF C16]	–	–	−0.190	0.876	–
CN(C)c1ccc(/C=C2\C(=O)Nc3ccccc32)cc1 [SU-4312]	–	–	0.118	1.085	–
O=C1Nc2ccccc2/C1=C1/Nc2ccccc2C1=O [Indirubin]	–	–	−0.103	0.931	–
CCCCC/C=C\C/C=C\C/C=C\C/C=C\CCCCCC(=O)NCCO [ANANDAMIDE (22:4, n-6)]	–	–	0.007	1.005	–
Cc1ccc(S(=O)(=O)NC(=O)NN2CCCCCC2)cc1 [TOLAZAMIDE]	−0.365	0.776	–	–	–
CCCCCCCCCCCCCCCCOCC(COP(=O)([O-])OCC[N+](C)(C)C)OC(C)=O (stereo not drawn) [ENANTIO-PAF C16]	–	–	−0.051	0.965	–
CNC(=O)[C@H](Cc1c[nH]c2ccccc12)NC(=O)[C@@H](CC(=O)NO)CC(C)C [GM6001]	–	–	0.173	1.128	–
CC[N+](C)(CC)CCC[n+]1c(-c2ccccc2)c2cc(N)ccc2c2ccc(N)cc21.[I-].[I-] [propidium iodide]	–	–	0.100	1.072	–
Cc1ccc(S(=O)(=O)N[C@@H](Cc2ccccc2)C(=O)CCl)cc1 [Tosyl-Phe-CMK (TPCK)]	−0.233	0.851	–	–	–
COC(=O)C1=C(C)NC(C)=C([N+](=O)[O-])C1c1ccccc1C(F)(F)F (centres unmarked) [BAY K-8644]	–	–	−0.027	0.982	–
tunicamycin [reference compound]	−1.925	0.263	–	–	0.263
Cc1c(C(=O)NN2CCCCC2)nn(-c2ccc(Cl)cc2Cl)c1-c1ccc(I)cc1 [AM-251]	–	–	0.065	1.046	–

Source: US20130096067A1, “DROSOPHILA TUMOR STEM CELL MODEL AND USES THEREOF” (priority 2011, published 2013)
